Assay results as given in PubChem BioAssay (NCI).
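Grown in 96-well plates, cells were treated for 48 hours with each compound at five concentrations. Insufficient inhibition: endpoint recorded as highest concentration tested. Definition used: TGI = concentration required for complete inhibition of growth.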

Key:
Assay in all cases: NCI tumour cell line growth inhibition, 48 h
786-0 renal = system: 786-0 renal
SF-295 CNS = system: SF-295 CNS
NCI-H522 lung = system: NCI-H522 lung
TK-10 renal = system: TK-10 renal
KM20L2 colon = system: KM20L2 colon
HCT-116 colon = system: HCT-116 colon
MOLT-4 leukemia = system: MOLT-4 leukemia
UACC-62 melanoma = system: UACC-62 melanoma
HCC-2998 colon = system: HCC-2998 colon
SF-539 CNS = system: SF-539 CNS
HOP-62 NSCLC = system: HOP-62 NSCLC
OVCAR-3 ovarian = system: OVCAR-3 ovarian
SK-MEL-28 melanoma = system: SK-MEL-28 melanoma
UACC-257 melanoma = system: UACC-257 melanoma
HCT-15 colon = system: HCT-15 colon
A549 NSCLC = system: A549 NSCLC
RXF 393 renal = system: RXF 393 renal
DU-145 prostate = system: DU-145 prostate
MDA-N = system: MDA-N
BT-549 breast = system: BT-549 breast

| Structure (SMILES) | TGI (786-0 renal) | TGI (SF-295 CNS) | TGI (NCI-H522 lung) | TGI (TK-10 renal) | TGI (KM20L2 colon) | TGI (HCT-116 colon) | TGI (MOLT-4 leukemia) | TGI (UACC-62 melanoma) | TGI (HCC-2998 colon) | TGI (SF-539 CNS) | TGI (HOP-62 NSCLC) | TGI (OVCAR-3 ovarian) | TGI (SK-MEL-28 melanoma) | TGI (UACC-257 melanoma) | TGI (HCT-15 colon) | TGI (A549 NSCLC) | TGI (RXF 393 renal) | TGI (DU-145 prostate) | TGI (MDA-N) | TGI (BT-549 breast) |
| --- | --- | --- | --- | --- | --- | --- | --- | --- | --- | --- | --- | --- | --- | --- | --- | --- | --- | --- | --- | --- |
| CC1(C)CC(=O)C2=C(C1)S/C(=C1/SC3=C(S1)C(=O)CC(C)(C)C3)S2 | > 251 µM | > 251 µM | > 251 µM | > 251 µM | > 251 µM | > 251 µM | > 251 µM | > 251 µM | > 251 µM | > 251 µM | > 251 µM | > 251 µM | > 251 µM | > 251 µM | > 251 µM | > 251 µM | > 251 µM |  |  |  |
| CC1(C)OC(C[C@]2(C#N)C[C@H](CCl)OC(C)(C)O2)C[C@@H](C[C@]2(C#N)C[C@H](CCl)OC(C)(C)O2)O1 (some centres not stated) | > 100 µM | > 100 µM | > 100 µM | > 100 µM | > 100 µM | > 100 µM | > 100 µM | > 100 µM | > 100 µM | > 100 µM | > 100 µM | > 100 µM | > 100 µM | > 100 µM | > 100 µM | > 100 µM |  |  |  |  |
| O=C1CCCC/C1=C1\C(=O)Nc2cc(F)ccc21 | > 100 µM | > 100 µM | > 100 µM | > 100 µM | > 100 µM | > 100 µM | > 100 µM | > 100 µM | > 100 µM | > 100 µM | > 100 µM |  | > 100 µM | > 100 µM | > 100 µM | > 100 µM | > 100 µM |  |  |  |
| O=C(CCCN1CCC2(CC1)NC(=O)c1ccccc1O2)c1ccc(F)cc1 | > 100 µM | > 100 µM | > 100 µM | > 100 µM |  | > 100 µM | > 100 µM | > 100 µM | > 100 µM | > 100 µM | > 100 µM | > 100 µM | > 100 µM | > 100 µM | > 100 µM | > 100 µM | > 100 µM | > 100 µM | > 100 µM | > 100 µM |
| COc1ccc2c3c(n(Cc4ccccc4)c(=O)c2c1)-c1cc(OC)c(OC)cc1C3C (configuration not stated) | 27.7 µM | 31.4 µM | 47.8 µM | > 100 µM | > 100 µM | > 100 µM | > 100 µM | 69.9 µM | > 100 µM | 24.4 µM | > 70 µM | > 100 µM | > 100 µM | > 100 µM | > 100 µM | > 100 µM | 48.8 µM |  |  |  |
| Nc1c(-c2nc3ccccc3o2)sc(=S)n1-c1ccc(Cl)cc1 | 22.9 µM | 27.3 µM | 49.7 µM | > 100 µM |  | 29.3 µM | > 100 µM | 27.8 µM | > 100 µM | 23.9 µM | 15.8 µM | 38.1 µM | 37.7 µM | 95.6 µM | > 100 µM | 39.2 µM | 66.8 µM | 32.9 µM | > 100 µM | 76 µM |
| Cc1c(-c2nnc(-c3ccc(Cl)cc3)o2)c(=O)n(-c2ccccc2)n1C | > 100 µM | > 100 µM | > 100 µM | > 100 µM | > 100 µM | > 100 µM | > 100 µM | > 100 µM | > 100 µM | 90.1 µM | > 100 µM | > 100 µM | > 100 µM | > 100 µM | > 100 µM | > 100 µM | > 100 µM |  |  |  |
| CC(C)OC(=O)C1=C(O)c2ccccc2S(=O)(=O)N1 | > 100 µM | > 100 µM | > 100 µM | > 100 µM | > 100 µM | > 100 µM | > 100 µM | > 100 µM | > 100 µM | > 100 µM | > 100 µM | > 100 µM | > 100 µM | > 100 µM | > 100 µM | > 100 µM |  |  |  |  |
| COC(=O)[C@]12CSC[C@H]1C[C@H](c1ccccc1OC)N2 | > 100 µM | > 100 µM | > 100 µM | > 100 µM |  | > 100 µM | > 100 µM | > 100 µM | > 100 µM | > 100 µM | > 100 µM | > 100 µM | > 100 µM | > 100 µM | > 100 µM | > 100 µM | > 100 µM | > 100 µM | > 100 µM | > 100 µM |
| Cc1nn(C(=O)c2ccc(Cl)cc2)c2c1C(c1cccc([N+](=O)[O-])c1)SC(N)=N2 (configuration not stated) | > 10 µM | > 10 µM | > 10 µM | > 10 µM |  | > 10 µM | > 10 µM | > 10 µM | > 10 µM | > 10 µM | > 10 µM | > 10 µM | > 10 µM | > 10 µM | 7.51 µM | > 10 µM | > 10 µM | > 10 µM | > 10 µM | > 10 µM |
| COc1cc(-c2cc(=O)c3c(O)c(OC)c(OC)c(OC)c3o2)ccc1O | > 100 µM | 60.5 µM | 44.7 µM | 78.3 µM | > 100 µM | > 100 µM | 93.5 µM | 34.4 µM | > 100 µM | 35.9 µM | 77.3 µM | > 100 µM | > 100 µM | > 100 µM | 43.1 µM | 90.7 µM | 48 µM |  |  |  |
| CCn1c(-c2ccc(F)cc2)nc2c1C(=O)c1ccccc1C2=O | > 100 µM | > 100 µM | > 100 µM | > 100 µM |  | > 100 µM | > 100 µM | > 100 µM | > 100 µM | > 100 µM | > 100 µM | > 100 µM | > 100 µM | > 100 µM | > 100 µM | > 100 µM | > 100 µM | > 100 µM | > 100 µM | > 100 µM |
| Fc1ccc(OCc2nc3cc(C(F)(F)F)ccc3nc2-c2ccccc2)cc1 | > 100 µM | > 100 µM | > 100 µM | > 100 µM |  | > 100 µM | > 67.6 µM | > 100 µM | > 100 µM | > 100 µM | > 100 µM | > 100 µM | > 100 µM | > 100 µM | > 100 µM | > 100 µM | > 100 µM | > 100 µM | > 100 µM | > 100 µM |
| O=C(O)c1ccccc1CC1Cc2ccc3c(c2C1=O)CCC3 (configuration not stated) | > 100 µM | > 100 µM | > 100 µM | > 100 µM |  | > 100 µM | > 100 µM | > 100 µM | > 100 µM | > 100 µM | > 100 µM | > 100 µM | > 100 µM | > 100 µM | > 100 µM | > 100 µM | > 100 µM | > 100 µM | > 100 µM | > 100 µM |
| CC(=O)Nc1ccc(CNc2cc(=O)n(C)c(=O)[nH]2)cc1 | > 100 µM | > 100 µM | > 100 µM | > 100 µM |  | > 100 µM | > 100 µM | > 100 µM | > 100 µM | > 100 µM | > 100 µM | > 100 µM | > 100 µM | > 100 µM | > 100 µM | > 100 µM | > 100 µM | > 100 µM | > 100 µM | > 100 µM |
| COc1cc(C=C2N=C(c3ccccc3)N(n3c(-c4ccccc4)nc4ccccc4c3=O)C2=O)cc(OC)c1OC | 45.9 µM | 41 µM | 39.7 µM | > 100 µM |  | 48.3 µM | > 100 µM | 51 µM | 89.6 µM | 45.3 µM | 29.9 µM | 54 µM | 35.5 µM | 43 µM | > 100 µM | > 100 µM | 39.2 µM | 79.9 µM | 92.6 µM | 32.5 µM |
| CCOC(=O)C(NCc1ccc2c(c1)OCO2)(NC(=O)c1ccccc1)C(F)(F)F (configuration not stated) | > 100 µM | > 100 µM | > 100 µM | > 100 µM |  | > 100 µM | 50.8 µM | > 100 µM | > 100 µM | > 100 µM | > 100 µM | > 100 µM | > 100 µM | > 100 µM | > 100 µM | > 100 µM | > 100 µM | > 100 µM | > 100 µM | > 100 µM |
| O=C(N/C(=C\c1cccc([N+](=O)[O-])c1)c1nc2[nH]c(=S)[nH]c(=O)c2[nH]1)c1ccccc1 | > 100 µM | > 100 µM | > 100 µM |  | > 100 µM | > 100 µM | > 100 µM | > 100 µM | > 100 µM | > 100 µM | > 100 µM | > 100 µM | > 100 µM | > 100 µM | > 100 µM | > 100 µM | > 100 µM |  |  |  |
